Legend:
[1] = test system: Brd4 bromodomain; design: method as in PMID 29928885; settings: cited from earlier work
[2] = target: T1, Brd4 bromodomain (Homo sapiens, UniProt O60885); assay: Alpha-screen enzyme assay (bromodomain binding to acetylated histone peptide); settings: for IC50: inhibition of bromodomain binding activity, calculated with Prism6;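 on all read-outs here: AlphaScreen proximity readout pairing streptavidin donor beads with anti-GST acceptor beads, with hits checked against bead interference using a TruHit control kit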
T1 construct: glutathione-S-transferase (GST) and His-tagged bromodomain; made in house
Procedure: Bromodomain was prepared as previously described. […] Streptavidin-coated donor beads and anti-GST alpha-screen acceptor beads were added under low-light condition. […] The alpha-screen results were confirmed by using alpha-screen TruHit kits (PerkinElmer, USA).

[3] = Cell cytotoxic assay in Ty82 cells; type: cell-based; settings: human, Ty82 cells; Ty82 cell cytotoxic activity, 72 h
Procedure: (§1) For the viability experiments, Ty82 cells were seeded in 96-well plates at 30% confluency and exposed to chemicals the next day. After 72 h, WST-1 reagent was added, and absorbance at 450 nm was measured by using a Spectramax spectrophotometer (Molecular Devices, San Jose, CA, USA) in accordance with the manufacturer’s instructions. The CC50 values were calculated by using GraphPad Prism version 5 for Windows. The curves were fitted using a nonlinear regression model with a log (inhibitor) versus response formula.

[4] = test system: c-MYC; assay: Western blot of c-MYC level in NALM6 cells; type: cell-based; settings: 18 h treatment
Procedure: For immunoblotting, cells were washed in PBS, lysed in 1× sample buffer (50 mmol/L Tris-HCl (pH 6.8), 10% glycerol, 2% SDS, and 3% β-mercaptoethanol), and boiled for 10 min. Lysates were subjected to SDS-PAGE followed by blotting with the indicated antibodies and detection by western blotting substrate ECL reagent (Thermo Fisher Scientific, Waltham, MA, USA). Images were produced using a SensiQ-2000 (Lugen Sci Co., Seoul, KOREA). The following antibodies were obtained from Cell Signaling Technology (Danvers, MA, USA): c-Myc (catalog no. 5605). Tubulin antibody (catalog no. T6199) was purchased from Sigma-Aldrich. HRP-conjugated anti-mouse (catalog no. NCI1430KR), and HRP-conjugated anti-rabbit (catalog no. NCI1460KR) antibodies were obtained from Thermo Scientific.

[5] = test system: Ty82 cells; assay: Cell cytotoxic assay in Ty82 cells; type: cell-based; settings: Homo sapiens; Ty82 cell cytotoxic activity, 72 h
Procedure: as §1

Row | Structure (SMILES) | inhibition of binding of Brd4 bromodomain to acetylated histone peptide (in words) [1] | inhibitory activity against Brd4 bromodomain (in words) ([2]; alpha-screen assay) | IC50 ([2]; alpha-screen assay) [nM] | CC50 at 72 h [3] [nM] | melting point [°C] | c-MYC level [4] | increase in activity compared with 8ba ([2]; Brd4 IC50 ratio) [fold] | CC50 [5] [nM]
1 | COc1ccc2c(c1OC)Oc1c(OC)ccc3c1C(=C2)N(C)C3=O [aristoyagonine] | efficiently inhibited |  |  |  |  |  |  | 
2 | CCN(CC)c1ccc2c3c1Oc1ccc(OCC(C)C)cc1C=C3N(C)C2=O [Compound 8ca] |  | no inhibitory activity | > 32000 | > 20000 | 183 to 185 |  |  | 
3 | COc1ccc2c(c1)C=C1c3c(ccc(OC)c3O2)C(=O)N1C [Compound 8bc, 5,9-Dimethoxy-1-methylbenzo[6,7]oxepino[4,3,2-cd]isoindol-2(1H)-one] |  |  | 410 |  | 194 to 196 | significantly decreased | 40 | 660
4 | CCOc1ccc2c3c1Oc1ccc(OC)cc1C=C3N(C)C2=O [Compound 8bk, 5-Ethoxy-9-methoxy-1-methylbenzo[6,7]oxepino[4,3,2-cd]isoindol-2(1H)-one] |  |  | 860 |  | 214 to 216 | significantly decreased |  | 490

— publication PMC8002823, “Synthesis and Structure–Activity Relationships of Aristoyagonine Derivatives as Brd4 Bromodomain Inhibitors with X-ray Co-Crystal Research” (Molecules, 2021)
